# In patent EP0067666A1, “Salts of antimicrobial naphthyridine and quinoline compounds and their production” (priority 1981, dated 1982):
# Marks after values point to notes of the source that are not given here.
# Assays:
# [1] = Solubility screening procedure (concentration and pH of filtrate); type: physicochemical; conditions: for Conc. of CPD A: compound A + equimolar acid; for Conc. of CPD A / Conc. of CPD B: amino acid or base in deionized water, room temperature, filtrate, UV assay; for pH of Solution: pH of the filtrate; for Conc. of CPD B: compound B + equimolar acid
# Protocol: (§1) The amount of Compound A or Compound B calculated for selected concentrations was weighed into volumetric flasks. Equimolar quantities of combining acid, amino acid, or base were added either as solutions or in dry form. Deionized water was added to bring the volume to that desired for the preselected concentrations.. All flasks were sonicated for 15 minutes, allowed to stand at room temperature for 30 minutes, then filtered through a fine frit sintered glass funnel. After the pH of the filtrate was taken, suitable dilutions were made into 0.1N HCl for ultraviolet spectrophotometric assay of concentration. Ten fold dilutions of the original filtrates were made into standard I.V. solutions.
# [2] = 10x dilution of soluble forms with standard IV solutions (pH, precipitate); type: physicochemical; conditions: for Solution 1 ppt 24 hr / Solution 3 ppt 24 hr / Solution 2 ppt 24 hr / Solution 4 ppt 24 hr: precipitate at 24 hr; for Concen. of Cpd A: undiluted solution used for the 10x dilutions; for Solution 1 ppt 4 hr / Solution 3 ppt 4 hr / Solution 2 ppt 4 hr / Solution 4 ppt 4 hr: precipitate at 4 hr; for Concen. of Cpd B: undiluted concentrated solution (at least 155 mg/ml) used for the Solution 1 dilution (for most salts for all four solutions)
# Protocol: as §1
# [3] = Cpd A salt solution diluted 10x with 0.9% NaCl
# [4] = Cpd A salt solution diluted 10x with 5% Dextrose
# [5] = Cpd A salt solution diluted 10x with 5% Dextrose + 0.9% NaCl
# [6] = Cpd A salt solution diluted 10x with Lactated Ringer's Solution
# [7] = concentrated Cpd B solution (154-221 mg/ml) diluted 10x with 5% Dextrose
# [8] = concentrated Cpd B solution (154-221 mg/ml) diluted 10x with 5% Dextrose + 0.9% NaCl
# [9] = concentrated Cpd B solution (154-221 mg/ml) diluted 10x with Lactated Ringer's Solution
# [10] = concentrated Cpd B solution (155-221 mg/ml) diluted 10x with 0.9% NaCl
# [11] = concentrated Cpd B solution diluted 10x with 5% Dextrose + 0.9% NaCl
# [12] = concentrated Cpd B solution diluted 10x with 5% Dextrose
# [13] = concentrated Cpd B solution diluted 10x with Lactated Ringer's Solution
# [14] = undiluted concentrated Cpd B solution used for the Solution 1 dilution
SMILES,Conc. of CPD A [1],pH of Solution ([1]; CPD A solutions),Conc. of CPD B [1],pH of Solution ([1]; CPD B solutions),also measured
CCn1cc(C(=O)O)c(=O)c2cc(F)c(N3CCNCC3)cc21 [A Citric],1500 µg/mL,3.32,–,–,–
CCn1cc(C(=O)O)c(=O)c2cc(F)c(N3CCNCC3)nc21 [B Lactobionic],–,–,99000 µg/mL,3.6 ^b,–
CCn1cc(C(=O)O)c(=O)c2cc(F)c(N3CCNCC3)cc21 [A Lactobionic],46500 µg/mL,4.65,–,–,–
CCn1cc(C(=O)O)c(=O)c2cc(F)c(N3CCNCC3)cc21 [A Methane Sulphonic],175000 µg/mL,1.33,–,–,"Solution 1 pH dil [2, 3]: 5.4; Solution 1 ppt 24 hr [2, 3]: no; Solution 2 pH dil [2, 4]: 2.7; Solution 3 pH dil [2, 5]: 2.5; Solution 3 ppt 24 hr [2, 5]: no; Solution 2 ppt 24 hr [2, 4]: no; Solution 4 pH dil [2, 6]: 4.5; Solution 4 ppt 24 hr [2, 6]: no; pH of Solut. ([2]; undiluted Cpd A solution): 1.5; Concen. of Cpd A [2]: 173000 µg/mL"
CCn1cc(C(=O)O)c(=O)c2cc(F)c(N3CCNCC3)nc21 [B Glycine],–,–,1200 µg/mL,6.87,–
CCn1cc(C(=O)O)c(=O)c2cc(F)c(N3CCNCC3)cc21 [A Tartaric],3500 µg/mL,3.02,–,–,–
CCn1cc(C(=O)O)c(=O)c2cc(F)c(N3CCNCC3)cc21 [A Oxalic],19800 µg/mL,2.14,–,–,–
CCn1cc(C(=O)O)c(=O)c2cc(F)c(N3CCNCC3)cc21 [A Isethionic],175000 µg/mL,1.35,–,–,"Solution 1 pH dil [2, 3]: 2.18; Solution 1 ppt 24 hr [2, 3]: no; Solution 2 pH dil [2, 4]: 2.27; Solution 3 pH dil [2, 5]: 2.08; Solution 3 ppt 24 hr [2, 5]: no; Solution 2 ppt 24 hr [2, 4]: no; Solution 4 pH dil [2, 6]: 3.70; Solution 4 ppt 24 hr [2, 6]: no; pH of Solut. ([2]; undiluted Cpd A solution): 1.35; Concen. of Cpd A [2]: 175000 µg/mL"
CCn1cc(C(=O)O)c(=O)c2cc(F)c(N3CCNCC3)nc21 [B L-Lysine],–,–,4300 µg/mL,9.4,–
CCn1cc(C(=O)O)c(=O)c2cc(F)c(N3CCNCC3)nc21 [B Gluconic],–,–,168000 µg/mL,4.6,–
CCn1cc(C(=O)O)c(=O)c2cc(F)c(N3CCNCC3)nc21 [B Diethanolamine],–,–,4300 µg/mL,9.7,–
CCn1cc(C(=O)O)c(=O)c2cc(F)c(N3CCNCC3)cc21 [A Maleic],45100 µg/mL,2.79,–,–,–
CCn1cc(C(=O)O)c(=O)c2cc(F)c(N3CCNCC3)nc21 [B Maleic],–,–,7750 µg/mL,2.60,–
CCn1cc(C(=O)O)c(=O)c2cc(F)c(N3CCNCC3)cc21 [A Hydrochloric],201000 µg/mL,1.52^a,–,–,"Solution 1 pH dil [2, 3]: 2.7; Solution 1 ppt 24 hr [2, 3]: no; Solution 2 pH dil [2, 4]: 2.8; Solution 3 pH dil [2, 5]: 2.7; Solution 3 ppt 24 hr [2, 5]: no; Solution 2 ppt 24 hr [2, 4]: no; Solution 4 pH dil [2, 6]: 4.6; Solution 4 ppt 24 hr [2, 6]: no; pH of Solut. ([2]; undiluted Cpd A solution): 1.52; Concen. of Cpd A [2]: 201000 µg/mL"
CCn1cc(C(=O)O)c(=O)c2cc(F)c(N3CCNCC3)nc21 [B Succinic],–,–,75000 µg/mL,4.45^b,–
CCn1cc(C(=O)O)c(=O)c2cc(F)c(N3CCNCC3)cc21 [A Galacturonic],166000 µg/mL,5.44,–,–,–
CCn1cc(C(=O)O)c(=O)c2cc(F)c(N3CCNCC3)nc21 [B Acetic],–,–,195000 µg/mL,4.97^c,"Solution 2 pH dil [2, 7]: 5.6; Solution 3 pH dil [2, 8]: 5.4; Solution 4 pH dil [2, 9]: 5.3; Solution 1 pH dil [2, 10]: 5.2; Solution 1 ppt 4 hr [2, 10]: yes; Solution 1 ppt 24 hr [2, 10]: yes; Solution 3 ppt 4 hr [2, 11]: yes; Solution 3 ppt 24 hr [2, 11]: yes; Solution 2 ppt 4 hr [2, 12]: slight; Solution 2 ppt 24 hr [2, 12]: slight; Solution 4 ppt 4 hr [2, 13]: slight; Solution 4 ppt 24 hr [2, 13]: yes; pH of Solut. [2, 14]: 4.97; Concen. of Cpd B [2]: 195000 µg/mL"
CCn1cc(C(=O)O)c(=O)c2cc(F)c(N3CCNCC3)cc21 [A L-Histidine],700 µg/mL,7.4,–,–,–
CCn1cc(C(=O)O)c(=O)c2cc(F)c(N3CCNCC3)cc21 [A Sodium Hydroxide],131000 µg/mL,10.0,–,–,–

SMILES,Conc. of CPD A [1],pH of Solution ([1]; CPD A solutions),Conc. of CPD B [1],pH of Solution ([1]; CPD B solutions),also measured
"CCn1cc(C(=O)O)c(=O)c2cc(F)c(N3CCNCC3)cc21 [A D,L-Alanine]",900 µg/mL,6.44,–,–,–
CCn1cc(C(=O)O)c(=O)c2cc(F)c(N3CCNCC3)cc21 [A Choline],53500 µg/mL,10.34,–,–,–
CCn1cc(C(=O)O)c(=O)c2cc(F)c(N3CCNCC3)cc21 [A Acetic],235000 µg/mL,5.3,–,–,"Solution 1 pH dil [2, 3]: 5.4; Solution 1 ppt 24 hr [2, 3]: no; Solution 2 pH dil [2, 4]: 5.0; Solution 3 pH dil [2, 5]: 5.3; Solution 3 ppt 24 hr [2, 5]: no; Solution 2 ppt 24 hr [2, 4]: no; Solution 4 pH dil [2, 6]: 5.3; Solution 4 ppt 24 hr [2, 6]: no; pH of Solut. ([2]; undiluted Cpd A solution): 5.3; Concen. of Cpd A [2]: 235000 µg/mL"
CCn1cc(C(=O)O)c(=O)c2cc(F)c(N3CCNCC3)cc21 [A L-Arginine],11100 µg/mL,9.8,–,–,–
CCn1cc(C(=O)O)c(=O)c2cc(F)c(N3CCNCC3)nc21 [B L-Arginine],–,–,6700 µg/mL,9.7,–
CCn1cc(C(=O)O)c(=O)c2cc(F)c(N3CCNCC3)nc21 [B Tartaric],–,–,7700 µg/mL,3.46,–
CCn1cc(C(=O)O)c(=O)c2cc(F)c(N3CCNCC3)nc21 [B Oxalic],–,–,2800 µg/mL,1.76^b,–
CCn1cc(C(=O)O)c(=O)c2cc(F)c(N3CCNCC3)cc21 [A Gluconic],182000 µg/mL,4.3,–,–,–
CCn1cc(C(=O)O)c(=O)c2cc(F)c(N3CCNCC3)nc21 [B Citric],–,–,1300 µg/mL,3.14,–
CCn1cc(C(=O)O)c(=O)c2cc(F)c(N3CCNCC3)cc21 [A L-Proline],900 µg/mL,6.28,–,–,–
CCn1cc(C(=O)O)c(=O)c2cc(F)c(N3CCNCC3)nc21 [B L-Proline],–,–,1100 µg/mL,6.92,–
CCn1cc(C(=O)O)c(=O)c2cc(F)c(N3CCNCC3)cc21 [A L-Leucine],900 µg/mL,6.2,–,–,–
CCn1cc(C(=O)O)c(=O)c2cc(F)c(N3CCNCC3)cc21 [A Diethanolamine],7500 µg/mL,9.68,–,–,–
CCn1cc(C(=O)O)c(=O)c2cc(F)c(N3CCNCC3)nc21 [B Lactic],–,–,217000 µg/mL,4.24^b,"Solution 2 pH dil [2, 7]: 4.2; Solution 3 pH dil [2, 8]: 4.1; Solution 4 pH dil [2, 9]: 4.3; Solution 1 pH dil [2, 10]: 4.1; Solution 1 ppt 4 hr [2, 10]: yes; Solution 1 ppt 24 hr [2, 10]: yes; Solution 3 ppt 4 hr [2, 11]: yes; Solution 3 ppt 24 hr [2, 11]: yes; Solution 2 ppt 4 hr [2, 12]: hazy; Solution 2 ppt 24 hr [2, 12]: hazy; Solution 4 ppt 4 hr [2, 13]: yes; Solution 4 ppt 24 hr [2, 13]: yes; pH of Solut. [2, 14]: 4.04; Concen. of Cpd B [2]: 221000 µg/mL"
CCn1cc(C(=O)O)c(=O)c2cc(F)c(N3CCNCC3)nc21 [B Choline],–,–,38200 µg/mL,9.8,–
CCn1cc(C(=O)O)c(=O)c2cc(F)c(N3CCNCC3)cc21 [A L-Lysine],4200 µg/mL,9.5,–,–,–
CCn1cc(C(=O)O)c(=O)c2cc(F)c(N3CCNCC3)cc21 [A Succinic],128000 µg/mL,4.25,–,–,–
CCn1cc(C(=O)O)c(=O)c2cc(F)c(N3CCNCC3)nc21 [B L-Histidine],–,–,1100 µg/mL,7.53,–
